Source: a melting point compilation (Tetko et al.; mined from patent text by program, amines drawn as free bases though some values may be those of a salt)

melting point | Structure (SMILES)
166 to 168 °C | CCCCCCCCCCCCOCC1CN(c2cc3c(cc2F)c(=O)c(C(=O)O)cn3CC)CCN1C (stereo not drawn)
201 °C | O=[N+]([O-])C=C1NCCN1c1ccc(Cl)nc1
193 to 194 °C | CC(Cl)CNc1cccc(C(N)=O)c1 (stereo not drawn)
134 °C | CC(C)(C)OC(=O)N1C(=O)C(Br)=C(c2cn(C(=O)OC(C)(C)C)c3ccc(OCc4ccccc4)cc23)C1=O
110 to 125 °C | CCC(CC)NC(=O)C[C@@H](C(=O)NC[C@@H](O)[C@H](Cc1ccccc1)NC(=O)[C@@H](NC(=O)c1ccc2ccccc2n1)[C@@H](C)O)C(C)(C)C
201 to 203 °C | CCCOc1cc(-c2ccc3c(c2)C=C(C(=O)Nc2ccc(CN(C)C4CCOCC4)cc2)CCS3(=O)=O)ccc1C#N
209 to 212 °C | CCOC(=O)CNC(=O)Nc1ccc(C(=O)/C=C/c2ccc(-c3cccs3)cc2)cc1
267 to 271 °C | N#Cc1nn(-c2c(Cl)cc(Cl)cc2Cl)c(N)c1C#N
135 to 137 °C | COC(=O)c1cnccc1C(=O)c1ccc(-n2ccnc2)cc1
171 °C | Cc1c(-c2ccc(C3=CCN(C(=O)OC(C)(C)C)CC3)cc2)nc2n1CCc1ccccc1C2OC1CCN(C)CC1 (stereo not drawn)
105 to 107 °C | c1ccc(Cn2ccnc2CC2COc3ccccc3O2)cc1 (stereo not drawn)
244 to 246 °C | Cc1nn(-c2ccc(Cl)cc2)c(C)c1NC(N)=S
80 °C | COC(=O)CCC#Cc1cc(Cl)ccc1NS(=O)(=O)c1ccc(C(F)(F)F)cc1
64 °C | CCOC(C)C(=O)c1cc(C(C)(C)C)c(O)c(C(C)(C)C)c1 (stereo not drawn)
206 to 208 °C | COC(=O)c1ccc(-c2nc(Nc3cc(OC)c(OC)c(OC)c3)ncc2C#N)cc1
290 °C | Nc1nc2ccc(Cl)cc2nc1N
160 to 165 °C | CCCCCCCCCCCCCCc1ccc(N(CC(=O)O)CC(=O)O)cc1
260 °C | CCOC(=O)c1nccc2c(C)c3c(cc12)c1cc(O)ccc1n3CC
254 to 260 °C | Cc1cccc(-c2c[nH]c(=O)c(C#N)c2)c1
152 to 154 °C | CC1(C)COC(c2ccc3c(c2-c2c(C4=NC(C)(C)CO4)ccc4c2OCO4)OCO3)=N1
170 °C | CC(=O)OCCOC(=O)C1=C(C)Nc2nc(N3CCOCC3)nc(N3CCOCC3)c2C1c1cccnc1 (stereo not drawn)
134 to 136 °C | COC(=O)Cn1c(Cc2ccccc2)ccc(N)c1=O
230 to 231 °C | O=C(O)c1cccc(-c2cccc(Oc3ccc(Cl)c(Cl)c3)n2)c1

melting point | Structure (SMILES)
94 °C | Cc1c(CCBr)c2cccc3c2n1CCS3
83 to 84 °C | CC(O)C1CCC(CNC(=O)OCc2ccccc2)CC1 (stereo not drawn)
129 to 131 °C | c1ccc(SC2(Sc3ccccc3)CCCn3cc(-c4ccccc4)nc32)cc1
271 to 275 °C | COc1ccccc1-n1c(=O)[nH]c2c(C(N)=O)nc(-c3cccc(C(F)(F)F)c3)nc21
325 to 328 °C | CCOCc1nc2c(N)nc3cc(-c4ccc(-c5ccc6c(c5)nc(N)c5nc(COCC)n(CC(C)(C)O)c56)cc4)ccc3c2n1CC(C)(C)O
135 to 138 °C | CCN(CC)CCOc1ccc(CNC(=O)C#Cc2ccc(C)cc2Cl)cc1
174 to 177 °C | O=C(Nc1cccc(F)c1)C12CC3CC(CC(C3)C1)C2
73 °C | CCn1c(CCCO)nc(C(C)C)c1Sc1cc(Cl)cc(Cl)c1
110 to 111 °C | CCCCCCOC1=c2ccc3c(c2=C(c2ccc4c(c2)OCO4)C(C)(C(=O)OC)C1(C)C(=O)OC)OCO3 (stereo not drawn)
220 to 224 °C | COc1ccc(C2CCOCC2)c2sc(-c3ncc[nH]3)nc12
74 to 77 °C | CC(=S)NC[C@H]1CN(c2ccc3c(c2)OC[C@@H](C)N3)C(=O)O1
271 to 273 °C | O=C(O)CN1CCN(c2ccnc(-c3nc(=O)c4ccccc4s3)c2)C1=O
200 to 203 °C | O=C(O)[C@@H]1CN(C(=O)N(c2ccccc2)c2cccc(Cl)c2)CCN1C(=O)N(c1ccccc1)c1cccc(Cl)c1
113 to 115 °C | CC(CC1c2ccccc2CCN1C)NCC(O)c1ccc(O)cc1 (stereo not drawn)
257 to 259 °C | O=c1[nH]c2c(c3nc(-c4ccccc4F)nn13)CCCCC2
106 to 108 °C | CC(=NOCCc1ccc(C)cc1)C(=O)O
127 to 129 °C | C#CC1(NC(=O)C(CCN2CCN(c3ccccc3OC)CC2)c2ccccc2)CCCCC1 (stereo not drawn)
81 to 82 °C | C#CCOc1nc(-c2ccc(OC)cc2)n(-c2ccc(OC)cc2)n1
209 to 212 °C | O=C1NCCc2c1c1ccccc1n2Cc1ccccc1
115 °C | CC(O)(c1cccc(C(F)(F)F)c1)c1cc(Cl)ccc1O (stereo not drawn)
257 to 259 °C | O=c1ncn(Cc2ccc(Cl)cc2)c2cc(-c3ccc(OCc4ccccn4)cc3)sc12
163 to 165 °C | CCc1nc2ccccc2n(-c2ccc(Cl)cc2)c1=O
134 to 135 °C | CS(=O)(=O)c1ccc(OCC2CCN(CC3CC3)CC2)cc1

melting point | Structure (SMILES)
182 to 185 °C | CC(c1ccnc(N)c1)C(O)(Cn1cncn1)c1ccc(F)cc1F (stereo not drawn)
171 to 173 °C | O=C(O)c1cccc(Oc2ccc(Br)cc2)c1
120 to 122 °C | CN(C)CCN(C)C(=O)Cn1c(-c2ccc(Cl)cc2)nc2cccnc21
180 °C | NNC(=O)C[C@H](O)c1ccccc1
148 to 150 °C | CC12CCC(=O)C=C1CCC1C2CCC2(C)C(c3cccnc3)=CCC12 (stereo not drawn)
182 to 184 °C | Cc1ccc(C(=O)c2c(N)cc(C(=O)O)cc2OCc2ccccc2)cc1
268 to 271 °C | COc1cccc(CNC(=O)c2nc3ccc(O)cc3c(=O)[nH]2)c1
246 to 247 °C | Cc1nc(=O)c(C)c(NCCc2cccn2C)[nH]1
81 to 82 °C | CC(C)C[C@H](NC(=O)OCc1ccccc1)C(=O)N[C@@H](Cc1ccccc1)C(=O)CN(C)C
117 to 118 °C | Oc1cccc(C(F)(F)F)n1
153 to 155 °C | CCN1CCC(N2C(=O)c3ccc([N+](=O)[O-])cc3C2=O)CC1
152 to 155 °C | COc1ccc(COC(=O)NC(CO)Cc2ccc(O)cc2)cc1OC (stereo not drawn)
143 °C | COc1ccc(Cn2c(=O)oc(=O)c3ccccc32)cc1
103 to 104 °C | N#CC(=NO)c1cccs1
130 to 132 °C | CCOC(=O)C(Cc1nc2cc(Cl)c(Cl)cc2nc1CP(=O)(OC)OC)(NC(C)=O)C(=O)OCC
92 °C | CCOC(=O)C(=CNNc1c(Cl)cc(Cl)cc1Cl)C(=O)OCC
212 to 214 °C | Cc1c(C(=O)c2cc(O)c(O)c([N+](=O)[O-])c2)[nH]c2ccccc12
213 to 215 °C | Cc1cc(C(=O)O)c(NC(=O)Nc2ccc(Oc3ccccc3)cc2)s1
166 to 167 °C | CC1(C)OC(=O)Nc2ccc(-c3cccc(F)c3F)cc21
189 to 190 °C | CC(C)n1nc(-c2c(-c3ccccc3)nn3ccc(OCC(=O)N(C)C)cc23)ccc1=O
74.5 to 76.9 °C | O=C(O)C(CC1CCCC1)c1ccc(Cl)c(Cl)c1 (stereo not drawn)
280 °C | O=C(Nc1ccc(S(=O)(=O)Nc2ncccn2)cc1)c1ccccc1SSc1ccccc1C(=O)Nc1ccc(S(=O)(=O)Nc2ncccn2)cc1
216 to 219 °C | CS(=O)(=O)NCCCCn1c(CO)nc2c(N)nc3ccccc3c21

melting point | Structure (SMILES)
137 °C | N#CCCCSc1nccc(NC(N)=NCC(F)(F)F)n1
148 to 151 °C | CCN(CC)CCOc1ccc2[nH]c3c([N+](=O)[O-])ccc(Cl)c3c(=O)c2c1
143 to 144 °C | Cn1cc(S(=O)(=O)NC(C)(C)C)c(=O)n(C)c1=O
178 to 188 °C | Cc1nccc(-c2cccc(S(=O)(=O)n3c(CCCC(=O)O)cc4nc(Cl)ccc43)c2)n1
168 to 169 °C | CN1CCN(c2cnn(C)c(=O)c2C=NO)CC1
196 °C | CN(C)C(=O)C(C#N)=C1Nc2ccccc2O1
252 to 254 °C | CC(C)C1(C)N=C(c2ccc(O)cn2)NC1=O (stereo not drawn)
124 to 126 °C | O=C(CNc1ccccc1)Nc1cc(F)c(F)cc1C(=O)O
79 to 80 °C | COC(=O)CS(=O)(=O)C(C)c1ccc(-c2ccccc2)cc1 (stereo not drawn)
219 to 220 °C | CC(=O)Nc1cc(Oc2ccc3c(c2)CCN3C(=O)Nc2ccc(OC(C)(C)C(=O)O)c(C(F)(F)F)c2)ncn1
110 to 111 °C | CCCCOC(=O)c1ccc(Cl)nn1
69 °C | CCCC(CCC)(CCC)C(N)=O
160 to 163 °C | NC(=O)NS(=O)(=O)c1ccccc1Cl
243 to 245 °C | Cc1cc(C=Cc2ccc(-c3ccc(C(F)(F)F)cc3)cc2)ccc1OCC(=O)O
80 to 82 °C | O=C(Nc1ccccc1)C1(C=Cc2ccccc2)SC=CC1OC(F)F (stereo not drawn)
186 to 188 °C | COc1cc2oc(=O)c3c(c2cc1OC)CCNC3
147 to 148 °C | CCNC(=O)c1cc(NS(=O)(=O)c2ccc(C(F)(F)F)cn2)ccc1Oc1cncc(Cl)c1
100 to 102 °C | COC(=O)c1nn(C2CCCCO2)cc1NC(=O)c1cccc(C)n1 (stereo not drawn)
271 to 272 °C | C=C(Nc1nc(-c2ccccc2)c(-c2nc3ccccc3c(=O)n2-c2ccccc2)s1)c1ccco1
148 to 150 °C | CCS(=O)(=O)Oc1cc2c(C)c(CCN3CCN(c4ccccc4OC)CC3)c(=O)oc2cc1OC
40 to 42 °C | CCCCCCSc1ccc(SCCCCCC)c(C(=O)O)n1
214 to 216 °C | CC(C)(C)NC(=O)c1nn(-c2ccc(F)cc2)c2c1C1CC3CC(C1)CC2C3
221 to 225 °C | COc1ccc(C(=O)Nc2ccc(F)cc2)cc1NS(=O)(=O)c1cccc(C#N)c1

Structure (SMILES) | melting point
Cc1nc2ccc3c(c2nc1C)OC(CN1CC=C(c2c[nH]c4ccccc24)CC1)CO3 (stereo not drawn) | 153 to 155 °C
CN1CCC23c4cccc(O)c4OC2C2CCC3(CC2)C1 (stereo not drawn) | 174 to 176 °C
CC(=Cc1ccc(N(C)C)cc1Cl)[N+](=O)[O-] | 93 to 94 °C
CC12CCC3C4CCC(=O)C=C4CCC3C1CCC2=O (stereo not drawn) | 163 to 169 °C
O=C1NC(=O)C(c2ccc(F)cc2)(c2ccc(F)cc2)C(=O)N1 | 315 to 318 °C
O=S1(=O)c2cccc3cccc(c23)N1CCCN1CC=C(c2ccccc2)CC1 | 88 °C
